Results published in US10947252B2, “Inhibitors of KEAP1-Nrf2 protein-protein interaction” (Janssen Pharmaceutica NV, priority 2018, dated 2021).
pEC50, pKd: −log10 of the molar value.

Legend:
[1] = system: Glo-Response ARE-luc2P HEK293 cell line; test: ARE luciferase reporter cell-based assay; conditions: Homo sapiens, HEK293, 24 h, average of results obtained;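 also: luciferase signal tracks Nrf2 activation of the ARE once compounds disrupt KEAP1-Nrf2 binding, read with One-Glo reagent, DMSO serving as low control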
[2] = target: Kelch domain of human KEAP1 (321-624 aa) (Homo sapiens (Human), UniProt Q14145); test: KEAP1 KELCH ThermoFluor binding assay; conditions: KEAP Kelch […], 1,8-ANS, pH 7.0, average of results obtained, read-out: Tf Kd;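 also: Ligand-induced melting temperature shift of E. coli-expressed KEAP1 Kelch protein, Kd estimated from concentration-response curves of ΔTm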
Chain of Kelch domain of human KEAP1 (321-624 aa) (Q14145 321-624): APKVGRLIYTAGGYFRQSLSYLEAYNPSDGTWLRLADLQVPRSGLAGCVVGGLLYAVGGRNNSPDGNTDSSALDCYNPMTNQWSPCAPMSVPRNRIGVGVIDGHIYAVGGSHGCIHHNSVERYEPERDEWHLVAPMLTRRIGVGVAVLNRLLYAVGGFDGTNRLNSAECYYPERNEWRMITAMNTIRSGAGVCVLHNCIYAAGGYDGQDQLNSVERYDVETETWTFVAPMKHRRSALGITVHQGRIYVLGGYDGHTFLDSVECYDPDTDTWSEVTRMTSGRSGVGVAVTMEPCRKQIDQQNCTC

pKd [2]	SMILES	pEC50 [1]
> 9.00	Cc1cnc2c(c1)S(=O)(=O)N(Cc1cc(C(c3ccn4c(C(F)(F)F)nnc4c3C)C(C)(C)C(=O)O)cnc1C)CC1(CCOCC1)O2 (racemic) [Example 584, (R/S)-2,2-Dimethyl-3-(8-methyl-3-(trifluoromethyl)-[1,2,4]triazolo[4,3-a]pyridin-7-yl)-3-(6-methyl-5-((8′-methyl-1′,1′-dioxido-2,3,5,6-tetrahydrospiro[pyran-4,4′-pyrido[2,3-b][1,4,5]oxathiazepin]-2′(3′H)-yl)methyl)pyridin-3-yl)propanoic Acid]	6.32
7.52	Cc1ccc([C@H](CC(=O)O)c2ccn3c(C(F)(F)F)nnc3c2C)cc1CN1C[C@@H]2CN(C)CCN2c2ncccc2S1(=O)=O (single isomer, unassigned) [Example 178, (*S)-3-(4-Methyl-3-(((S)-9-methyl-5,5-dioxido-7,7a,8,9,10,11-hexahydro-6H-pyrazino[2,1-d]pyrido[2,3-f][1,2,5]thiadiazepin-6-yl)methyl)phenyl)-3-(8-methyl-3-(trifluoromethyl)-[1,2,4]triazolo[4,3-a]pyridin-7-yl)propanoic Acid]	6.36
> 9.00	Cc1ccc(C(CC(=O)O)c2ccn3c(C(F)(F)F)nnc3c2C)cc1CN1CC2(COC2)Oc2ncccc2S1(=O)=O (stereo not shown) [Example 259, 3-(3-((1′,1′-Dioxidospiro[oxetane-3,4′-pyrido[2,3-b][1,4,5]oxathiazepin]-2′(3′H)-yl)methyl)-4-methylphenyl)-3-(8-methyl-3-(trifluoromethyl)-[1,2,4]triazolo[4,3-a]pyridin-7-yl)propanoic Acid]	6.70
> 9.00	Cc1ccc([C@@H](CC(=O)O)c2ccn3c(C(F)F)nnc3c2C)cc1CN1CC2(CCOCC2)Oc2ccc(F)cc2S1(=O)=O (single isomer, unassigned) [Example 525, (*R)-3-(3-(Difluoromethyl)-8-methyl-[1,2,4]triazolo[4,3-a]pyridin-7-yl)-3-(3-((8-fluoro-1,1-dioxido-2′,3′,5′,6′-tetrahydrospiro[benzo[b][1,4,5]oxathiazepine-4,4′-pyran]-2(3H)-yl)methyl)-4-methylphenyl)propanoic Acid]	7.41
> 9.00	Cc1ccc([C@H](CC(=O)O)c2ccn3c(C(F)F)nnc3c2C)cc1CN1C[C@H]2CCCN2c2ncccc2S1(=O)=O (single isomer, unassigned) [Example 450, (*S)-3-(3-(Difluoromethyl)-8-methyl-[1,2,4]triazolo[4,3-a]pyridin-7-yl)-3-(3-(((R)-5,5-dioxido-7a,8,9,10-tetrahydropyrido[2,3-f]pyrrolo[2,1-d][1,2,5]thiadiazepin-6(7H)-yl)methyl)-4-methylphenyl)propanoic Acid]	7.60
> 9.00	Cc1ccc(C(CC(=O)O)c2ccn3c(C(F)(F)F)nnc3c2C)cc1CN1C[C@H]2CCCN2c2ccccc2S1(=O)=O (stereo partly drawn) [Example 265, 3-(3-(((R)-5,5-Dioxido-7a,8,9,10-tetrahydrobenzo[f]pyrrolo[2,1-d][1,2,5]thiadiazepin-6(7H)-yl)methyl)-4-methylphenyl)-3-(8-methyl-3-(trifluoromethyl)-[1,2,4]triazolo[4,3-a]pyridin-7-yl)propanoic Acid]	7.51
5.07	Cc1ccc([C@H](c2ccn3c(C(F)(F)F)nnc3c2C)C(C)(C)C(=O)O)cc1CN1CC2(CCOCC2)Oc2nc(N[C@H](C)CCO)ccc2S1(=O)=O (single isomer, unassigned) [Example 120, (*R)-3-(3-((7′-(((R)-4-Hydroxybutan-2-yl)amino)-1′,1′-dioxido-2,3,5,6-tetrahydrospiro[pyran-4,4′-pyrido[2,3-b][1,4,5]oxathiazepin]-2′(3′H)-yl)methyl)-4-methylphenyl)-2,2-dimethyl-3-(8-methyl-3-(trifluoromethyl)-[1,2,4[triazolo[4,3-a]pyridine-7-yl)propanoic Acid]	4.71
> 9.00	Cc1ccc([C@@H](c2ccn3c(C(F)(F)F)nnc3c2C)C(C)(C)C(=O)O)cc1CN1CC2(CCOCC2)Oc2nc(O[C@H](C)CN3CCCCC3)c(C)cc2S1(=O)=O (single isomer, unassigned) [Example 601, (*S)-2,2-Dimethyl-3-(4-methyl-3-((8′-methyl-1′,1′-dioxido-7′-(((*R)-1-(piperidin-1-yl)propan-2-yl)oxy)-2,3,5,6-tetrahydrospiro[pyran-4,4′-pyrido[2,3-b][1,4,5]oxathiazepin]-2′,(3′H)-yl)methyl)phenyl)-3-(8-methyl-3-(trifluoromethyl)-[1,2,4]triazolo[4,3-a]pyridine-7-yl)propanoic Acid]	8.32
> 9.00	Cc1ncc([C@H](c2ccn3c(C(F)(F)F)nnc3c2C)C(C)(C)C(=O)O)cc1CN1CC2(CCOCC2)Oc2ncccc2S1(=O)=O (single isomer, unassigned) [Example 570, (*S)-3-(5-((1′,1′-Dioxido-2,3,5,6-tetrahydrospiro[pyran-4,4′-pyrido[2,3-b][1,4,5]oxathiazepin]-2′(3′H)-yl)methyl)-6-methylpyridin-3-yl)-2,2-dimethyl-3-(8-methyl-3-(trifluoromethyl)-[1,2,4]triazolo[4,3-a]pyridin-7-yl)propanoic Acid]	5.95
> 9.00	Cc1cnc2c(c1)S(=O)(=O)N(Cc1cc([C@@H](c3ccc4c(nnn4C4CC4)c3C)C(C)(C)C(=O)O)cnc1C)CC1(CC1)O2 (single isomer, unassigned) [Example 395, (*S)-3-(1-Cyclopropyl-4-methyl-1H-benzo[d][1,2,3]triazol-5-yl)-2,2-dimethyl-3-(6-methyl-5-((8′-methyl-1′,1′-dioxidospiro[cyclopropane-1,4′-pyrido[2,3-b][1,4,5]oxathiazepin]-2′(3′H)-yl)methyl)pyridin-3-yl)propanoic Acid]	7.80
> 9.00	Cc1ccc([C@H](CC(=O)O)c2ccn3c(C(F)(F)F)nnc3c2C)nc1CN1C[C@@H]2CCCCN2c2ncccc2S1(=O)=O (single isomer, unassigned) [Example 480, (*R)-3-(6-(((*S)-5,5-Dioxido-7,7a,8,9,10,11-hexahydro-6H-dipyrido[2,1-d:2′,3′-f][1,2,5]thiadiazepin-6-yl)methyl)-5-methylpyridin-2-yl)-3-(8-methyl-3-(trifluoromethyl)-[1,2,4]triazolo[4,3-a]pyridin-7-yl)propanoic Acid]	6.60
> 9.00	Cc1ccc([C@H](CC(=O)O)c2ccn3c(C(F)(F)F)nnc3c2C)cc1CN1CC2(CC2)Oc2ncc(F)cc2S1(=O)=O (single isomer, unassigned) [Example 311, (*S)-3-(3-((8′-Fluoro-1′,1′-dioxidospiro[cyclopropane-1,4′-pyrido[2,3-b][1,4,5]oxathiazepin]-2′(3′H)-yl)methyl)-4-methylphenyl)-3-(8-methyl-3-(trifluoromethyl)-[1,2,4]triazolo[4,3-a]pyridin-7-yl)propanoic Acid]	8.03
> 9.00	Cc1cnc([C@@H](c2ccn3c(C(F)F)nnc3c2C)C(C)(C)C(=O)O)cc1CN1CC2(CC2)Oc2nc(OCCN3CCCCC3)c(C)cc2S1(=O)=O (single isomer, unassigned) [Example 638, (*S)-3-(3-(Difluoromethyl)-8-methyl-[1,2,4]triazolo[4,3-a]pyridin-7-yl)-2,2-dimethyl-3-(5-methyl-4-((8′-methyl-1′,1′-dioxido-7′-(2-(piperidin-1-yl)ethoxy)spiro[cyclopropane-1,4′-pyrido[2,3-b][1,4,5]oxathiazepin]-2′(3′H)-yl)methyl)pyridin-2-yl)propanoic Acid]	7.70
> 9.00	Cc1ccc([C@@H](c2ccn3c(C(F)F)nnc3c2C)C(C)(C)C(=O)O)nc1CN1CC2(CCOCC2)Oc2nc(OCCN3CCCC3)c(C)cc2S1(=O)=O (single isomer, unassigned) [Example 644, (*S)-3-(3-(Difluoromethyl)-8-methyl-[1,2,4]triazolo[4,3-a]pyridin-7-yl)-2,2-dimethyl-3-(5-methyl-6-((8′-methyl-1′,1′-dioxido-7′-(2-(pyrrolidin-1-yl)ethoxy)-2,3,5,6-tetrahydrospiro[pyran-4,4′-pyrido[2,3-b][1,4,5]oxathiazepin]-2′(3′H)-yl)methyl)pyridin-2-yl)propanoic Acid]	7.29
> 9.00	Cc1ccc([C@H](CC(=O)O)c2ccn3c(C(F)(F)F)nnc3c2)cc1CN1C[C@@H]2CCCN2c2ncccc2S1(=O)=O (single isomer, unassigned) [Example 254, (*S)-3-(3-(((S)-5,5-Dioxido-7a,8,9,10-tetrahydropyrido[2,3-f]pyrrolo[2,1-d][1,2,5]thiadiazepin-6(7H)-yl)methyl)-4-methylphenyl)-3-(3-(trifluoromethyl)-[1,2,4]triazolo[4,3-a]pyridin-7-yl)propanoic Acid]	5.47
> 9.00	Cc1cnc([C@@H](c2ccn3c(C(F)F)nnc3c2C)C(C)(C)C(=O)O)cc1CN1CC2(CC2)Oc2nc(OCCN3CCCC3)c(C)cc2S1(=O)=O (single isomer, unassigned) [Example 636, (*S)-3-(3-(Difluoromethyl)-8-methyl-[1,2,4]triazolo[4,3-a]pyridin-7-yl)-2,2-dimethyl-3-(5-methyl-4-((8′-methyl-1′,1′-dioxido-7′-(2-(pyrrolidin-1-yl)ethoxy)spiro[cyclopropane-1,4′-pyrido[2,3-b][1,4,5]oxathiazepin]-2′(3′H)-yl)methyl)pyridin-2-yl)propanoic Acid]	7.40
9.80	Cc1ccc([C@H](CC(=O)O)c2ccc3c(nnn3CC3CC3)c2C)cc1CN1CC2(COC2)Oc2ncccc2S1(=O)=O (single isomer, unassigned) [Example 69, (*S)-3-(1-(Cyclopropylmethyl)-4-methyl-1H-benzo[d][1,2,3]triazol-5-yl)-3-(3-((1′,1′-dioxidospiro[oxetane-3,4′-pyrido[2,3-b][1,4,5]oxathiazepin-2′(3′H)-yl)methyl)-4-methylphenyl)propanoic Acid]	7.55
